In patent US9120774B2 (University of Kansas, priority 2009, dated 2015):
Like-named read-outs stand apart in the source and are kept apart here. Values belong to the compound of their own block, whether it stands above or below them.

What was measured:
Format in all cases: cell-based
[1] = tested on: SkBr3 (Her2 overexpressing breast cancer cells); assay: Anti-proliferation activity against SkBr3 cells (MTS/PMS)
Procedure, shortened: (§1)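 Cells seeded at 2000/well, attached overnight, then exposed to compound at varying concentrations (1% DMSO final) for 72 hours at 37° C. Viable cells read by MTS/PMS, normalised to 1% DMSO as 100% proliferation. IC50 from separate triplicate experiments.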

[2] = tested on: A549 (human alveolar basal epithelial cells); assay: Anti-proliferation activity against A549 cells (MTS/PMS); conditions: Homo sapiens, A549
Experimental: (§2) Cells were maintained in a 1:1 mixture of Advanced DMEM/F12 (Gibco) supplemented with non-essential amino acids, L-glutamine (2 mM), streptomycin (500 μg/mL), penicillin (100 units/mL), and 10% FBS. Cells were grown to confluence in a humidified atmosphere (37° C., 5% CO2), seeded (2000/well, 100 μL) in 96-well plates, and allowed to attach overnight. Compound or GDA at varying concentrations in DMSO (1% DMSO final concentration) was added, and cells were returned to the incubator for 72 hours. At 72 hours, the number of viable cells was determined using an MTS/PMS cell proliferation kit (Promega) per the manufacturer's instructions. Cells incubated in 1% DMSO were used at 100% proliferation, and values were adjusted accordingly. IC50 values were calculated from separate experiments performed in triplicate using GraphPad Prism.

[3] = tested on: MM2 (metastatic mammary tumor cancer cells); assay: Anti-proliferation activity against MM2 cells (MTS/PMS)
Experimental: as §2

[4] = tested on: MCF-7 (estrogen receptor positive breast cancer cells); assay: Anti-proliferation activity against MCF-7 cells (MTS/PMS)
Procedure, shortened: as §1

[5] = tested on: LN3 (metastatic human prostate cancer cells); assay: Anti-proliferation activity against LN3 cells (MTS/PMS)
Experimental: as §2

[6] = tested on: PC-3 (androgen independent prostate cancer cells); assay: Anti-proliferation activity against PC-3 cells; conditions: Homo sapiens, PC-3, n = 3, read-out: IC50 PC-3
Procedure, shortened: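 Antiproliferative activity was tested in PC-3 androgen-independent prostate cancer cells. Cells grown at 37° C. with 5% CO2 in Advanced DMEM/F12 (1:1) containing non-essential amino acids, 2 mM L-glutamine, streptomycin, penicillin and 10% FBS were plated at 2000/well in 96-well plates. Proliferation was normalized to 1% DMSO controls, and IC50 values from triplicate experiments were fitted in GraphPad Prism.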

[7] = tested on: LNCaP (androgen sensitive prostate cancer cells); assay: Anti-proliferation activity against LNCaP cells; conditions: Homo sapiens, LNCaP, n = 3, read-out: IC50 LNCaP
Procedure, shortened: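 Cells seeded at 2000/well in Advanced DMEM/F12 with 10% FBS and attached overnight, then given compound in 1% DMSO final for 72 h at 37 °C, 5% CO2. Viable cells by MTS/PMS read-out, normalised to 1% DMSO as 100% proliferation. IC50 from separate triplicate experiments.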

[8] = tested on: PL45 (pancreatic cancer cells); assay: Anti-proliferation activity against PL45 cells; conditions: n = 3
[9] = tested on: HCT-116 (colon cancer cells characterized by wild-type p53); assay: Anti-proliferation activity against HCT-116 cells; conditions: Homo sapiens, n = 3
[10] = Homo sapiens, SK-BR-3, Table 10, azasugar analogues on 6-methoxy coumarin, 72 hours, read-out: IC50 SKBr3
[11] = Table 10, azasugar analogues on 6-methoxy coumarin, 72 hours
[12] = Homo sapiens, MCF7, Table 10, azasugar analogues on 6-methoxy coumarin, 72 hours, read-out: IC50 MCF-7
[13] = Homo sapiens, Table 10, azasugar analogues on 6-methoxy coumarin, 72 hours
[14] = Table 9, azasugar analogues on 8-methyl coumarin, 72 hours
[15] = Table 20, indole-2-carboxamide analogues with noviose replacements
[16] = Table 11, azasugar analogues on 8-methoxy coumarin, 72 hours
[17] = Table 5, heterocyclic analogues
[18] = Table 12, aliphatic chain analogues, 72 hours

SMILES: COc1cccc(-c2cc(C(=O)Nc3cc4cc(OC)c(OC5CCCN(C)C5)c(C)c4oc3=O)ccc2OC)c1 (stereo not shown) [KU-281]
- IC50 [1, 10]: 1.49 ± 0.07 µM
- IC50 [2, 11]: 3.19 µM
- IC50 [3, 11]: 4.47 µM
- IC50 [4, 12]: 1.41 ± 0.16 µM
- IC50 [5, 13]: 6.63 µM

SMILES: COc1ccc(C(=O)Nc2cc3ccc(O[C@@H]4OC(C)(C)[C@H](OC)[C@@H](O)[C@H]4O)c(C)c3oc2=O)cc1-c1ccccc1 [28, KU-252]
- IC50 ([1]; Table 9, azasugar analogues on 8-methyl coumarin, 72 hours, read-out: IC50 SKBr3): 5.41 ± 0.8 µM
- IC50 [3, 14]: 2.99 µM
- IC50 ([4]; Table 9, azasugar analogues on 8-methyl coumarin, 72 hours, read-out: IC50 MCF-7): 29.4 ± 8.4 µM
- IC50 [5, 14]: 0.35 µM

SMILES: COc1cccc(-c2cc(C(=O)Nc3cc4cc(OC)c(OC5CCNCC5)c(C)c4oc3=O)ccc2OC)c1 [KU-286]
- IC50 [1, 10]: 1.2 ± 0.1 µM
- IC50 [2, 11]: 3.5 µM
- IC50 [3, 11]: 4.02 µM
- IC50 [4, 12]: 2.82 ± 1.38 µM
- IC50 [5, 13]: 5.27 µM

SMILES: COc1cccc(-c2cc(C(=O)Nc3cc4cc(OC)c(OC5CCN(C)CC5)c(C)c4oc3=O)ccc2OC)c1 [KU-287]
- IC50 [1, 10]: 1.19 ± 0.21 µM
- IC50 [2, 11]: 1.99 µM
- IC50 [3, 11]: 2.84 µM
- IC50 [4, 12]: 1.79 ± 0.11 µM
- IC50 [5, 13]: 4.07 µM

SMILES: COc1cccc(-c2cc(C(=O)Nc3cc4ccc(OC5CCN(C)CC5)c(OC)c4oc3=O)ccc2OC)c1 [KU-275]
- IC50 ([1]; Homo sapiens, SK-BR-3, Table 11, azasugar analogues on 8-methoxy coumarin, 72 hours, read-out: IC50 SKBr3): 0.97 ± 0.09 µM
- IC50 [2, 16]: 3.06 µM
- IC50 [3, 16]: 3.71 µM
- IC50 ([4]; Homo sapiens, MCF7, Table 11, azasugar analogues on 8-methoxy coumarin, 72 hours, read-out: IC50 MCF-7): 1.39 ± 0.35 µM
- IC50 ([5]; Homo sapiens, Table 11, azasugar analogues on 8-methoxy coumarin, 72 hours): 4.75 µM

More lines, now with the values ahead:

- IC50 ([1]; Homo sapiens, SK-BR-3, Table 20, indole-2-carboxamide analogues with noviose replacements, read-out: IC50, SKBr3): 0.15 ± 0.06 µM
- IC50 [2, 15]: > 100 µM
- IC50 [3, 15]: 42.8 µM
- IC50 ([4]; Homo sapiens, MCF7, Table 20, indole-2-carboxamide analogues with noviose replacements, read-out: IC50, MCF-7): 0.69 ± 0.12 µM
- IC50 ([5]; Homo sapiens, Table 20, indole-2-carboxamide analogues with noviose replacements): 14.8 µM
SMILES: COc1cc2cc(NC(=O)c3cc4ccccc4[nH]3)c(=O)oc2c(C)c1OC1CCCN(C)C1 (stereo not shown) [KU-366]

- IC50 ([6]; Table 4, biaryl analogues): 53.3 ± 4.5 µM
- IC50 ([1]; Homo sapiens, SK-BR-3, Table 4, biaryl analogues, n = 3, read-out: IC50 SkBr3): 7.5 ± 1 µM
- IC50 ([7]; Table 4, biaryl analogues): 2.1 ± 0.3 µM
- IC50 ([4]; Homo sapiens, MCF7, Table 4, biaryl analogues, n = 3, read-out: IC50 MCF-7): 18.7 ± 1.8 µM
- IC50 ([8]; Table 4, biaryl analogues): 2 ± 0.6 µM
- IC50 ([9]; Table 4, biaryl analogues): 5.1 ± 1.1 µM
SMILES: COc1cccc(-c2cc(C(=O)Nc3cc4ccc(O[C@@H]5OC(C)(C)[C@H](OC)[C@@H](O)[C@H]5O)c(C)c4oc3=O)ccc2OC)c1 [compound 33, N-(7-((2R,3R,4S,5R)-3,4-Dihydroxy-5-methoxy-6,6-dimethyltetrahydro-2H-pyran-2-yloxy)-8-methyl-2-oxo-2H-chromen-3-yl)-3′,6-dimethoxybiphenyl-3-carboxamide]

- IC50 [6, 17]: 67 ± 20.2 µM
- IC50 ([1]; Homo sapiens, SK-BR-3, Table 5, heterocyclic analogues, n = 3, read-out: IC50 SkBr3): 65.9 ± 15.8 µM
- IC50 [7, 17]: 50.1 ± 3.3 µM
- IC50 ([4]; Homo sapiens, MCF7, Table 5, heterocyclic analogues, n = 3, read-out: IC50 MCF-7): 47.8 ± 4.2 µM
- IC50 [8, 17]: 13.2 ± 1 µM
- IC50 [9, 17]: 37.3 ± 1 µM
SMILES: CO[C@@H]1[C@@H](O)[C@@H](O)[C@H](Oc2ccc3cc(NC(=O)c4cccnc4)c(=O)oc3c2C)OC1(C)C [compound 41, N-(7-((2R,3R,4S,5R)-3,4-Dihydroxy-5-methoxy-6,6-dimethyltetrahydro-2H-pyran-2-yloxy)-8-methyl-2-oxo-2H-chromen-3-yl)nicotinamide]

- IC50 ([1]; Homo sapiens, SK-BR-3, Table 12, aliphatic chain analogues, 72 hours, read-out: IC50 SKBr3): 0.6 ± 0.01 µM
- IC50 [2, 18]: 13.1 µM
- IC50 [3, 18]: 12.8 µM
- IC50 ([4]; Homo sapiens, MCF7, Table 12, aliphatic chain analogues, 72 hours, read-out: IC50 MCF-7): 0.5 ± 0.04 µM
- IC50 ([5]; Homo sapiens, Table 12, aliphatic chain analogues, 72 hours): 37.5 µM
SMILES: COc1cccc(-c2cc(C(=O)Nc3cc4ccc(OCCCN(C)C)c(C)c4oc3=O)ccc2OC)c1 [KU-317]
